Measured values as given in the kinase profiling compilation of Christmann-Franck et al. (2016).

Tests used:
Experiment in all cases: KINOMEscan competition binding
Conditions in all cases: compound 10.0 µM
MAP2K1 (human) = MAP2K1 (human) (UniProt Q02750)
HIPK4 (human) = HIPK4 (human) (UniProt Q8NE63)
MAPK8 (human) = MAPK8 (human) (UniProt P45983)
MAP3K3 (human) = MAP3K3 (human) (UniProt Q99759)
PAK7 (human) = PAK7 (human) (UniProt Q9P286)
STK17B (human) = STK17B (human) (UniProt O94768)
DCLK1 (human) = DCLK1 (human) (UniProt O15075)
NUAK2 (human) = NUAK2 (human) (UniProt Q9H093)
Chain of NUAK2 (human) (Q9H093 whole entry, looked up): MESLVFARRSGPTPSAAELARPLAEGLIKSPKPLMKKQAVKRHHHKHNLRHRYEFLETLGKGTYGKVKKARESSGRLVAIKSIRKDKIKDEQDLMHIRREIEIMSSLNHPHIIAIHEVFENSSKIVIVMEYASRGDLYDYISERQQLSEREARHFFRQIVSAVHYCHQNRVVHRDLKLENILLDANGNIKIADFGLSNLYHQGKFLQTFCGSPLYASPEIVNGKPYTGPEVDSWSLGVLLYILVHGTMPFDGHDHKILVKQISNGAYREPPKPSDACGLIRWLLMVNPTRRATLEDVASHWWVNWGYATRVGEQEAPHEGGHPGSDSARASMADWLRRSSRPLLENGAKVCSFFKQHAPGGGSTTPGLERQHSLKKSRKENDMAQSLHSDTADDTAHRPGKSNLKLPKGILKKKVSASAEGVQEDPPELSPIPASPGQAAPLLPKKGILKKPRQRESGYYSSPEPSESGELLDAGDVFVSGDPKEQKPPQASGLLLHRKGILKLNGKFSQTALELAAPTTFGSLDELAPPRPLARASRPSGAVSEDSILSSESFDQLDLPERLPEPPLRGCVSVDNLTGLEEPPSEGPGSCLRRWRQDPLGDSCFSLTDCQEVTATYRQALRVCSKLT

SYK (human) = SYK (human) (UniProt P43405)
BRAF (human) = BRAF (human) (UniProt P15056)
Chain of BRAF (human) (P15056 whole entry, looked up): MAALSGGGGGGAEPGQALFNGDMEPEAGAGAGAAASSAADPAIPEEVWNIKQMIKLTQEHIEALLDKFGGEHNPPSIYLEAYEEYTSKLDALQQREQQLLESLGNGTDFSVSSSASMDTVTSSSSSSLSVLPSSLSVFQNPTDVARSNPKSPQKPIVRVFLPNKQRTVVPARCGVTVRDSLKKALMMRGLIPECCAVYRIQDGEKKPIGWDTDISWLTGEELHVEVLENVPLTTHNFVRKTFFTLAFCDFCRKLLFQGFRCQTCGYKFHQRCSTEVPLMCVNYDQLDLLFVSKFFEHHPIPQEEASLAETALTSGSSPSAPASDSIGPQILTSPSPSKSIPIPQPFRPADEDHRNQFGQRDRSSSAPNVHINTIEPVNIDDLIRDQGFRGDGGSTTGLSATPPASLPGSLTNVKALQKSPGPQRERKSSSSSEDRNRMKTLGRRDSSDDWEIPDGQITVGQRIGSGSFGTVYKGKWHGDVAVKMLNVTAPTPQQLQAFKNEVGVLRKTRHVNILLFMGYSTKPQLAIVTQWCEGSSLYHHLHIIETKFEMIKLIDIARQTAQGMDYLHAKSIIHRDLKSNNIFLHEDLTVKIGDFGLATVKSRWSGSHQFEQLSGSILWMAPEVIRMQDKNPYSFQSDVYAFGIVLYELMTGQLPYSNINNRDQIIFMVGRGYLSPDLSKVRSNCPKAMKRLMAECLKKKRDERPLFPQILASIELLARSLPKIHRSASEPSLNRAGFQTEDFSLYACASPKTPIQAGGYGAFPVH

MTOR (human) = MTOR (human) (UniProt P42345)
EPHA1 (human) = EPHA1 (human) (UniProt P21709)
[1] = test system: KIT (human), P10721 [L576P]
CDK11B (human) = CDK11B (human) (UniProt P21127)
ZAP70 (human) = ZAP70 (human) (UniProt P43403)
CAMK4 (human) = CAMK4 (human) (UniProt Q16566)
GRK7 (human) = GRK7 (human) (UniProt Q8WTQ7)
IRAK3 (human) = IRAK3 (human) (UniProt Q9Y616)
LRRK2 (human) = LRRK2 (human) (UniProt Q5S007)
ANKK1 (human) = ANKK1 (human) (UniProt Q8NFD2)
Chain of ANKK1 (human) (Q8NFD2 whole entry, looked up): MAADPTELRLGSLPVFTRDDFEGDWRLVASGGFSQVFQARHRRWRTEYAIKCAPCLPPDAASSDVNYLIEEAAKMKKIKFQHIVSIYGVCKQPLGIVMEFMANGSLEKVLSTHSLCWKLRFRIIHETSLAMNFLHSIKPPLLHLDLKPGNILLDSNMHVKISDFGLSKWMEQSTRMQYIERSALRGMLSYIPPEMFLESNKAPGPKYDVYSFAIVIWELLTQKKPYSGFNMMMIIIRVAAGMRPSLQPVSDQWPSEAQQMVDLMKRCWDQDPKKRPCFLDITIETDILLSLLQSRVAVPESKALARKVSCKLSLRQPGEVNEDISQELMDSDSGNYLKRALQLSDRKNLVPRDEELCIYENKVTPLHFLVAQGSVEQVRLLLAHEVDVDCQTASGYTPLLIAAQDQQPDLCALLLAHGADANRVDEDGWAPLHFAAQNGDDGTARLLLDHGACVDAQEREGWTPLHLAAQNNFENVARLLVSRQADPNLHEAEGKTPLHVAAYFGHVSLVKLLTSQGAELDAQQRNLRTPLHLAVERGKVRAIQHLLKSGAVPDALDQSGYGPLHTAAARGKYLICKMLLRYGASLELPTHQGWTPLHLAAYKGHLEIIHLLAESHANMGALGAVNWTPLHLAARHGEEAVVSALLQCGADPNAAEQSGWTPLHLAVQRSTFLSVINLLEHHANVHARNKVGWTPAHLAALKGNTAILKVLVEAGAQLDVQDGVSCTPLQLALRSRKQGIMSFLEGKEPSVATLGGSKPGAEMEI

EPHB1 (human) = EPHB1 (human) (UniProt P54762)
[2] = biological target: TYK2 JH2 pseudokinase (human) (UniProt P29597)
MAP2K7 (human) = MAP2K7 (human) (UniProt O14733)
RIPK1 (human) = RIPK1 (human) (UniProt Q13546)
CDC42BPG (human) = CDC42BPG (human) (UniProt Q6DT37)
PIK3CG (human) = PIK3CG (human) (UniProt P48736)
MATK (human) = MATK (human) (UniProt P42679)
Chain of MATK (human) (P42679 whole entry, looked up): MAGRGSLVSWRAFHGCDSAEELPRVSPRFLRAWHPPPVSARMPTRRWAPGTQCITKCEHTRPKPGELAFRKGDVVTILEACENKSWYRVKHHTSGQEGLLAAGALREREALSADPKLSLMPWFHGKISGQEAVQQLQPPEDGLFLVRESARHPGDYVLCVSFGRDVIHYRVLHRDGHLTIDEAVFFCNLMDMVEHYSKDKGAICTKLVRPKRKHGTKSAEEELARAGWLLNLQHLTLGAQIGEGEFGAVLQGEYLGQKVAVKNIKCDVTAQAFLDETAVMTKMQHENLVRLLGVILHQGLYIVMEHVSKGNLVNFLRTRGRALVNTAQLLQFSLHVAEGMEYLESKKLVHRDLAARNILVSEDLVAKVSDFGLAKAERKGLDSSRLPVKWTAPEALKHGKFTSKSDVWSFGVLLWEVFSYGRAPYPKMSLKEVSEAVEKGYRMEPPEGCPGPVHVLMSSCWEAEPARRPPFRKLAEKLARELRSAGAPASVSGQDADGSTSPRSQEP

PI4KB (human) = PI4KB (human) (UniProt Q9UBF8)
PIP4K2C (human) = PIP4K2C (human) (UniProt Q8TBX8)
KIT (human) = KIT (human) (UniProt P10721)
CSNK2A2 (human) = CSNK2A2 (human) (UniProt P19784)
SBK1 (human) = SBK1 (human) (UniProt Q52WX2)
PLK2 (human) = PLK2 (human) (UniProt Q9NYY3)
MARK4 (human) = MARK4 (human) (UniProt Q96L34)
Chain of MARK4 (human) (Q96L34 whole entry, looked up): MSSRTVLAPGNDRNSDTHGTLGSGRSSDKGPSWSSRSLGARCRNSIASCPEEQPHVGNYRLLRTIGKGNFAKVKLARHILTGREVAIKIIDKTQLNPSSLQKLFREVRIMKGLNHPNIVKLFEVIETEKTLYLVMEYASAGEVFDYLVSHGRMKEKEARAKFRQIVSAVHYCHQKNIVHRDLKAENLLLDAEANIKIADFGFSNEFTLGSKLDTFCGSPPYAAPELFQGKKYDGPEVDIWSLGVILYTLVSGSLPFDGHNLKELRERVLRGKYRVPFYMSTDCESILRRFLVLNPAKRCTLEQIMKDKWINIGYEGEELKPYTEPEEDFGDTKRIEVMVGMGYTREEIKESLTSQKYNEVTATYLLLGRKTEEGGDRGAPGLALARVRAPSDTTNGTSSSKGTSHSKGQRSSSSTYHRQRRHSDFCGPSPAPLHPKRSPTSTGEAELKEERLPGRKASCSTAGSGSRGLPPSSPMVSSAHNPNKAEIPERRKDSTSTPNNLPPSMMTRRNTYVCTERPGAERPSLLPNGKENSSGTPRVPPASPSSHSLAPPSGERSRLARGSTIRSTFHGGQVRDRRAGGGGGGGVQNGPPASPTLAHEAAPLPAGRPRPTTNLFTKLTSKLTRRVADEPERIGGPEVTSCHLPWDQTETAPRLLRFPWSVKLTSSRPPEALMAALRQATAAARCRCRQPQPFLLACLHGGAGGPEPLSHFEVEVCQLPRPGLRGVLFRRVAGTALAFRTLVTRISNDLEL

EPHA5 (human) = EPHA5 (human) (UniProt P54756)
ERN1 (human) = ERN1 (human) (UniProt O75460)
PRKCI (human) = PRKCI (human) (UniProt P41743)
DAPK3 (human) = DAPK3 (human) (UniProt O43293)
DYRK1B (human) = DYRK1B (human) (UniProt Q9Y463)
IKBKB (human) = IKBKB (human) (UniProt O14920)

Chain of HIPK4 (human) (Q8NE63 whole entry, looked up): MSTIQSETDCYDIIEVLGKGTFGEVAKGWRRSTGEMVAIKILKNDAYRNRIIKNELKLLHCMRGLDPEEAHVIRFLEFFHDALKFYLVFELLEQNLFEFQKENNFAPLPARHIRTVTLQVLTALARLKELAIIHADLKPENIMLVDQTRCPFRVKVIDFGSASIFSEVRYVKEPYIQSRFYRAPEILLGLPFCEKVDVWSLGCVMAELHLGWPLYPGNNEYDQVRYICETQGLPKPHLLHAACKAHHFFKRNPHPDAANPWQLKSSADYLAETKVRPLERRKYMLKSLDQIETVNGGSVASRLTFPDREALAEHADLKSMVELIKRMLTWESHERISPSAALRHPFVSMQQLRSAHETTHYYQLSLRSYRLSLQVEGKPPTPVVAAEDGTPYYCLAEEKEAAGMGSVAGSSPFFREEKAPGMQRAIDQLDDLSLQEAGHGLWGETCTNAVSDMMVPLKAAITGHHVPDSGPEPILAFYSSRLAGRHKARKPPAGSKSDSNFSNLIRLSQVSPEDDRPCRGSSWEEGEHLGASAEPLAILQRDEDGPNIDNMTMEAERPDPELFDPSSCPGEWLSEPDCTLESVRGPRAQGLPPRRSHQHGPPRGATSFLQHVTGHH
Chain of PAK7 (human) (Q9P286 whole entry, looked up): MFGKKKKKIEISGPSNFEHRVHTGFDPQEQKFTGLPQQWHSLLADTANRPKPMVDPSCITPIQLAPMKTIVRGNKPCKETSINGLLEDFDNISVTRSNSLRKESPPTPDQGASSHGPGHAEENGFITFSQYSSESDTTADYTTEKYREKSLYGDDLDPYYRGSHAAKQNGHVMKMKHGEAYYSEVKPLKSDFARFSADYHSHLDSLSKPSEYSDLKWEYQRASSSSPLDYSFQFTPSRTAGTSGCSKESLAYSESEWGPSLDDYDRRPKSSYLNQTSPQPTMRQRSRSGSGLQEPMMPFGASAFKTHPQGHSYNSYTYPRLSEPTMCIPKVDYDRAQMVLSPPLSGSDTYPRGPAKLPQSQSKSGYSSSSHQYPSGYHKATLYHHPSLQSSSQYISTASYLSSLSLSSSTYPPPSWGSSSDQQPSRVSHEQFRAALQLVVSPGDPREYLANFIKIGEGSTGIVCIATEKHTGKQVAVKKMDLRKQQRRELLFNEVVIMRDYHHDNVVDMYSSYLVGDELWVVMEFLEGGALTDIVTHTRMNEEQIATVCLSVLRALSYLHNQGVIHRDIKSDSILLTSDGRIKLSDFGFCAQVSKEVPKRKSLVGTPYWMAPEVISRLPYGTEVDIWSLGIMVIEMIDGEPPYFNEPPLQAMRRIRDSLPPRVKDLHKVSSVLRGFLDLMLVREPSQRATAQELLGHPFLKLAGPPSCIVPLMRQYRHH

SMILES	kinase still bound, per cent of control (MAP2K1 (human)) [%]	kinase still bound, per cent of control (HIPK4 (human)) [%]	kinase still bound, per cent of control (MAPK8 (human)) [%]	kinase still bound, per cent of control (PAK7 (human)) [%]	kinase still bound, per cent of control (STK17B (human)) [%]	kinase still bound, per cent of control (DCLK1 (human)) [%]	kinase still bound, per cent of control (NUAK2 (human)) [%]	kinase still bound, per cent of control (BRAF (human)) [%]	kinase still bound, per cent of control (EPHA1 (human)) [%]	kinase still bound, per cent of control [1] [%]	kinase still bound, per cent of control (CDK11B (human)) [%]	kinase still bound, per cent of control (ZAP70 (human)) [%]	kinase still bound, per cent of control (CAMK4 (human)) [%]	kinase still bound, per cent of control (GRK7 (human)) [%]	kinase still bound, per cent of control (IRAK3 (human)) [%]	kinase still bound, per cent of control (ANKK1 (human)) [%]	kinase still bound, per cent of control (EPHB1 (human)) [%]	kinase still bound, per cent of control [2] [%]	kinase still bound, per cent of control (RIPK1 (human)) [%]	kinase still bound, per cent of control (CDC42BPG (human)) [%]	other results
COc1cc2ncn(-c3cc(OCc4ccccc4C(F)(F)F)c(C(N)=O)s3)c2cc1OC	67	15	100	98	85	49	6	100	84	30	100	95	100	52	67	80	96	97	74	64	kinase still bound, per cent of control (MAP3K3 (human)): 74%; kinase still bound, per cent of control (SYK (human)): 72%; kinase still bound, per cent of control (MTOR (human)): 78%; kinase still bound, per cent of control (LRRK2 (human)): 80%; kinase still bound, per cent of control (MAP2K7 (human)): 87%; kinase still bound, per cent of control (PIK3CG (human)): 18%; kinase still bound, per cent of control (MATK (human)): 85%; kinase still bound, per cent of control (PI4KB (human)): 100%; kinase still bound, per cent of control (PIP4K2C (human)): 26%; kinase still bound, per cent of control (KIT (human)): 30%; kinase still bound, per cent of control (CSNK2A2 (human)): 17%; kinase still bound, per cent of control (SBK1 (human)): 96%; kinase still bound, per cent of control (PLK2 (human)): 0.2%; kinase still bound, per cent of control (MARK4 (human)): 99%; kinase still bound, per cent of control (EPHA5 (human)): 90%; kinase still bound, per cent of control (ERN1 (human)): 75%; kinase still bound, per cent of control (PRKCI (human)): 72%; kinase still bound, per cent of control (DAPK3 (human)): 19%; kinase still bound, per cent of control (DYRK1B (human)): 87%
COc1cc(N2CCN(C)CC2)ccc1Nc1ncc2c(n1)N(C)c1ccccc1C(=O)N2C	100	100	100	100	100	0.65	14	100	100	100	100	100	100	100	100	100	100	100	100	100	kinase still bound, per cent of control (MAP3K3 (human)): 100%; kinase still bound, per cent of control (SYK (human)): 100%; kinase still bound, per cent of control (IKBKB (human)): 100%; kinase still bound, per cent of control (PIK3CG (human)): 31%; kinase still bound, per cent of control (MATK (human)): 100%; kinase still bound, per cent of control (PI4KB (human)): 100%; kinase still bound, per cent of control (KIT (human)): 100%; kinase still bound, per cent of control (CSNK2A2 (human)): 100%; kinase still bound, per cent of control (SBK1 (human)): 8.9%; kinase still bound, per cent of control (PLK2 (human)): 100%; kinase still bound, per cent of control (MARK4 (human)): 100%; kinase still bound, per cent of control (EPHA5 (human)): 100%; kinase still bound, per cent of control (ERN1 (human)): 100%; kinase still bound, per cent of control (DAPK3 (human)): 100%; kinase still bound, per cent of control (DYRK1B (human)): 100%
C[C@@H](Oc1cc(-c2cnn(C3CCNCC3)c2)cnc1N)c1c(Cl)ccc(F)c1Cl	64	15	100	49	100	2	5.5	53	0.85	43	0.1	29	100	42	0.95	4.2	0.15	2.3	5	48	kinase still bound, per cent of control (MTOR (human)): 100%; kinase still bound, per cent of control (LRRK2 (human)): 97%; kinase still bound, per cent of control (MAP2K7 (human)): 83%; kinase still bound, per cent of control (IKBKB (human)): 14%; kinase still bound, per cent of control (PIK3CG (human)): 100%; kinase still bound, per cent of control (MATK (human)): 64%; kinase still bound, per cent of control (PI4KB (human)): 100%; kinase still bound, per cent of control (PIP4K2C (human)): 100%; kinase still bound, per cent of control (KIT (human)): 43%; kinase still bound, per cent of control (CSNK2A2 (human)): 55%; kinase still bound, per cent of control (SBK1 (human)): 6%; kinase still bound, per cent of control (PLK2 (human)): 73%; kinase still bound, per cent of control (MARK4 (human)): 48%; kinase still bound, per cent of control (EPHA5 (human)): 1.8%; kinase still bound, per cent of control (ERN1 (human)): 42%; kinase still bound, per cent of control (PRKCI (human)): 35%; kinase still bound, per cent of control (DAPK3 (human)): 94%; kinase still bound, per cent of control (DYRK1B (human)): 84%
